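Protocol summary: plate cells (96-well), add compound at 5 concentrations, incubate 48 h, interpolate endpoints linearly. GI50 marks 50% less growth. TGI marks complete inhibition of growth.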
Legend:
Assay in all cases: NCI-60 cell line screen, 48 h
SF-268 CNS = tested on: SF-268 CNS
SK-MEL-28 melanoma = tested on: SK-MEL-28 melanoma
SK-OV-3 ovarian = tested on: SK-OV-3 ovarian
HCT-15 colon = tested on: HCT-15 colon
HT29 colon = tested on: HT29 colon
SN12C renal = tested on: SN12C renal
SK-MEL-2 melanoma = tested on: SK-MEL-2 melanoma
UACC-62 melanoma = tested on: UACC-62 melanoma
NCI/ADR-RES ovarian = tested on: NCI/ADR-RES ovarian
K-562 leukemia = tested on: K-562 leukemia
ACHN renal = tested on: ACHN renal
LOX IMVI melanoma = tested on: LOX IMVI melanoma
SNB-75 CNS = tested on: SNB-75 CNS
HOP-92 NSCLC = tested on: HOP-92 NSCLC
MALME-3M melanoma = tested on: MALME-3M melanoma
HOP-62 NSCLC = tested on: HOP-62 NSCLC
MOLT-4 leukemia = tested on: MOLT-4 leukemia
NCI-H522 lung = tested on: NCI-H522 lung
M14 melanoma = tested on: M14 melanoma
RXF 393 renal = tested on: RXF 393 renal
BT-549 breast = tested on: BT-549 breast
U251 CNS = tested on: U251 CNS
HS 578T breast = tested on: HS 578T breast
OVCAR-8 ovarian = tested on: OVCAR-8 ovarian
HL-60(TB) leukemia = tested on: HL-60(TB) leukemia
IGROV1 ovarian = tested on: IGROV1 ovarian
786-0 renal = tested on: 786-0 renal
NCI-H226 lung = tested on: NCI-H226 lung
CAKI-1 renal = tested on: CAKI-1 renal
NCI-H460 lung = tested on: NCI-H460 lung
SF-539 CNS = tested on: SF-539 CNS
UACC-257 melanoma = tested on: UACC-257 melanoma
SF-295 CNS = tested on: SF-295 CNS
TK-10 renal = tested on: TK-10 renal
MDA-MB-435 = tested on: MDA-MB-435
UO-31 renal = tested on: UO-31 renal
SW-620 colon = tested on: SW-620 colon
A498 renal = tested on: A498 renal
HCT-116 colon = tested on: HCT-116 colon
MDA-MB-231 breast = tested on: MDA-MB-231 breast
DU-145 prostate = tested on: DU-145 prostate
OVCAR-5 ovarian = tested on: OVCAR-5 ovarian
HCC-2998 colon = tested on: HCC-2998 colon
SK-MEL-5 melanoma = tested on: SK-MEL-5 melanoma
KM12 colon = tested on: KM12 colon
A549 NSCLC = tested on: A549 NSCLC
SNB-19 CNS = tested on: SNB-19 CNS
COLO 205 colon = tested on: COLO 205 colon
OVCAR-3 ovarian = tested on: OVCAR-3 ovarian
OVCAR-4 ovarian = tested on: OVCAR-4 ovarian
EKVX NSCLC = tested on: EKVX NSCLC
RPMI-8226 leukemia = tested on: RPMI-8226 leukemia
PC-3 prostate = tested on: PC-3 prostate
CCRF-CEM leukemia = tested on: CCRF-CEM leukemia
T-47D breast = tested on: T-47D breast
SR leukemia = tested on: SR leukemia

## CN(C)CCCNc1c2ccc(Cl)cc2nc2c1oc1ccc(Cl)cc12
SF-268 CNS
  GI50: 3.45 µM
  TGI: 15.3 µM
SK-MEL-28 melanoma
  GI50: 14 µM
  TGI: 27.2 µM
SK-OV-3 ovarian
  GI50: 10.1 µM
  TGI: 21.7 µM
HCT-15 colon
  GI50: 2.1 µM
  TGI: 5.71 µM
HT29 colon
  GI50: 1.69 µM
  TGI: 3.5 µM
SN12C renal
  GI50: 1.72 µM
  TGI: 3.51 µM
SK-MEL-2 melanoma
  GI50: 13.6 µM
  TGI: 26.8 µM
UACC-62 melanoma
  GI50: 16.4 µM
  TGI: 31.6 µM
NCI/ADR-RES ovarian
  GI50: 2.31 µM
  TGI: 6.59 µM
K-562 leukemia
  GI50: 2.73 µM
ACHN renal
  GI50: 1.7 µM
  TGI: 3.23 µM
LOX IMVI melanoma
  GI50: 1.89 µM
  TGI: 3.4 µM
SNB-75 CNS
  GI50: 5.25 µM
  TGI: 19.2 µM
HOP-92 NSCLC
  GI50: 1.41 µM
  TGI: 7.69 µM
MALME-3M melanoma
  GI50: 4.76 µM
  TGI: 20.5 µM
HOP-62 NSCLC
  GI50: 5.21 µM
  TGI: 19.6 µM
MOLT-4 leukemia
  GI50: 3.14 µM
  TGI: 11.8 µM
NCI-H522 lung
  GI50: 4.22 µM
  TGI: 17 µM
M14 melanoma
  GI50: 1.71 µM
  TGI: 3.78 µM
RXF 393 renal
  GI50: 2.68 µM
  TGI: 8.4 µM
BT-549 breast
  GI50: 11.4 µM
  TGI: 25 µM
U251 CNS
  GI50: 1.76 µM
  TGI: 3.35 µM
HS 578T breast
  GI50: 8.82 µM
  TGI: 28.2 µM
OVCAR-8 ovarian
  GI50: 2.07 µM
  TGI: 4.45 µM
HL-60(TB) leukemia
  GI50: 1.98 µM
  TGI: 4.81 µM
IGROV1 ovarian
  GI50: 3.66 µM
  TGI: 15.9 µM
786-0 renal
  GI50: 1.65 µM
  TGI: 3.25 µM
NCI-H226 lung
  GI50: 6.32 µM
  TGI: 20.9 µM
CAKI-1 renal
  GI50: 1.49 µM
  TGI: 2.9 µM
NCI-H460 lung
  GI50: 2.1 µM
  TGI: 4.8 µM
SF-539 CNS
  GI50: 1.81 µM
  TGI: 3.24 µM
UACC-257 melanoma
  GI50: 12.3 µM
  TGI: 25.5 µM
SF-295 CNS
  GI50: 4.72 µM
  TGI: 17.1 µM
TK-10 renal
  GI50: 13.1 µM
  TGI: 26 µM
MDA-MB-435
  GI50: 2.18 µM
  TGI: 5.57 µM
UO-31 renal
  GI50: 4.13 µM
  TGI: 18.3 µM
SW-620 colon
  GI50: 1.64 µM
  TGI: 3.63 µM
A498 renal
  GI50: 15.3 µM
  TGI: 31.4 µM
HCT-116 colon
  GI50: 1.43 µM
  TGI: 2.79 µM
MDA-MB-231 breast
  GI50: 2.19 µM
  TGI: 5.94 µM
DU-145 prostate
  GI50: 3.01 µM
  TGI: 9.1 µM
OVCAR-5 ovarian
  GI50: 7.03 µM
  TGI: 19.7 µM
HCC-2998 colon
  GI50: 1.84 µM
  TGI: 3.38 µM
SK-MEL-5 melanoma
  GI50: 16.3 µM
  TGI: 29.8 µM
KM12 colon
  GI50: 2.65 µM
  TGI: 8.35 µM
A549 NSCLC
  GI50: 1.67 µM
  TGI: 3.18 µM
SNB-19 CNS
  GI50: 5.97 µM
  TGI: 18.8 µM
COLO 205 colon
  GI50: 4.58 µM
  TGI: 20 µM
OVCAR-3 ovarian
  GI50: 2.24 µM
  TGI: 4.99 µM
OVCAR-4 ovarian
  GI50: 1.67 µM
  TGI: 3.32 µM
EKVX NSCLC
  GI50: 4.76 µM
  TGI: 17.3 µM
RPMI-8226 leukemia
  GI50: 2.58 µM
  TGI: 7.84 µM
PC-3 prostate
  GI50: 1.81 µM
  TGI: 3.86 µM
CCRF-CEM leukemia
  GI50: 3.42 µM
  TGI: 12.2 µM
T-47D breast
  GI50: 13.1 µM
  TGI: 29.2 µM
SR leukemia
  GI50: 3.04 µM
  TGI: 10.1 µM
